# According to PubChem BioAssay AID624258 (Broad Institute, 2012):
# Activity calls are given as the source filed them. No rule for the calls is given here.
# Assay: Yeast SKN7 toxicity growth rescue counterscreen, Saccharomyces cerevisiae, plate reader, dose confirmatory (AID 624258);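 also: growth read after three days of incubation at 30 °C; 0% = median of neutral control wells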
# Details: S. cerevisiae SKN7-toxicity growth rescue, plate reader
Compound,growth rescue activity (at 19.5 µM (top of the series)),also measured
CCOC(=O)c1cc2c(=Cc3ccc(N(C)C)cc3)c3ccccc3n2[n+]1C,–,growth rescue activity (at 6.8 µM (top of the series)): -71.9% (inactive)
CC(=N/O)/C(=N\O)c1ccc(C)o1,3.21% (inactive),–
CC12CNCC(C)(CN(C3(O)C(=O)Nc4ccc(Br)cc43)C1)C2=O (configuration not stated),-39.9% (inactive),–
Cc1nn(CCC#N)c(N)c1C1(O)C(=O)Nc2c(Cl)cc(Cl)cc21 (configuration not stated),12.9% (inactive),–
COc1ccc(-c2oc3ccccc3c2C#Cc2cncn2C)cc1,-49.1% (inactive),–
O=S(=O)(Nc1ccccc1)c1ccc(Oc2ncc(C(F)(F)F)cc2Cl)cc1,–,growth rescue activity (at 2.1 µM (top of the series)): -15.3% (inactive)
C=C(C)COc1ccc(-c2[nH]ncc2-c2ccccc2)c(O)c1,-93.2% (inactive),–
Cc1cc(/C=C2\SC(=S)N(C)C2=O)c(C)n1-c1ccc(O)cc1,-39.6% (inactive),–
O=[N+]([O-])c1cccc(C=NNc2ccc3ccccc3n2)c1O,-79.2% (inactive),–
Cc1ccc(Sc2ccc(NC(=O)CCl)cc2)cc1C,-34.2% (inactive),–
CN(Cc1ccc(Cl)s1)C(=O)CCl,19.3% (inactive),–
CCOC(=O)c1ccc(-c2ccc(C3Nc4ccccc4C(=O)N3O)o2)cc1 (configuration not stated),-4.76% (inactive),–
CCN(CC)c1ccc(/C=C/c2ccc3ccc(OC)cc3[n+]2CC)cc1,-52.7% (inactive),–
COc1cccc2c1C(=O)c1c(O)c3c(c(O)c1C2=O)C[C@@](O)(C(C)=O)C[C@@H]3O[C@H]1C[C@H](N)[C@H](O)[C@H](C)O1,23.7% (inactive),–
COCCn1c(=NC(=O)CSC(C)=O)sc2cc(F)ccc21,56.5% (inactive),–
CCCCOC(=O)/C=C/c1ccc(OC(=O)OC)c(OC(=O)OC)c1,-13.9% (inactive),–
O=S(=O)(Nc1cc(Sc2ncn[nH]2)c(O)c2ccccc12)c1ccccc1,-4.91% (inactive),–
N#Cc1c(-c2ccco2)c2c([nH]c1=S)CCCC2,-16.7% (inactive),–
CC(=O)N1CC[n+]2c(-c3ccc(Cl)cc3)csc21,-24.8% (inactive),–
Cc1cc(N2CCN(c3ccccc3)CC2)nc(-c2ccccc2O)n1,-42.6% (inactive),–
S=C(Nc1ccc(Oc2ccccc2)cc1)NC1CCCCCC1,-9.53% (inactive),–
Cc1cc(C)c(C(=O)CC(=O)c2cccnc2)c(C)c1,-57.9% (inactive),–
O=C(O)CSc1cc(NS(=O)(=O)c2ccc(Br)cc2)c2ccccc2c1O,30.5% (inactive),–

Compound,growth rescue activity (at 19.5 µM (top of the series)),also measured
O=C(N/N=C/c1cc(Cl)cc([N+](=O)[O-])c1O)c1ccccc1NS(=O)(=O)c1cccs1,-5.73% (inactive),–
C=CCNc1nc(-c2ccccn2)nnc1-c1ccccc1,-28.2% (inactive),–
COc1ccc2[nH]c(=O)c(CN(Cc3cccnc3)C(=O)Nc3ccccc3)cc2c1,-61.1% (inactive),–
CC1=CC(C)(C)N(S(=O)(=O)c2ccc(C)cc2)c2ccc(C)cc21,-55.9% (inactive),–
CC1CCN(c2nc(-c3ccncc3)nc3ccccc23)CC1,-17.2% (inactive),–
O=C(Nc1nnc(-c2cccs2)o1)c1cccc(Oc2ccccc2)c1,-6.4% (inactive),–
O=C(Nc1nc(-c2ccccc2)c(-c2ccccc2)o1)c1ccc(F)cc1,-15.6% (inactive),–
CCC(C)n1ncn(-c2ccc(N3CCN(c4ccc(OCC5COC(Cn6cncn6)(c6ccc(Cl)cc6Cl)O5)cc4)CC3)cc2)c1=O (configuration not stated),-70.7% (inactive),–
Cc1cc(OCc2cccc(S(=O)(=O)N3CCOCC3)c2)ccc1Cl,66.7% (inactive),–
COc1ccc(OC)c(-c2c3cc(O)c(=O)cc-3oc3cc(O)c(O)cc23)c1,26.2% (inactive),–
CC(=O)c1c(O)ccc2c(-c3ccccc3)cc(=O)oc12,-69.1% (inactive),–
Cn1c(SCC(=O)N2c3ccccc3Sc3ccc(Cl)cc32)nnc1-c1ccco1,-51.2% (inactive),–
O=C(O)c1c(NC(=O)N2CCCC2)sc2c1CCCC2,-88% (inactive),–
O=C(C1CCN(C2CC(=O)N(c3cccc(Cl)c3)C2=O)CC1)N1CCCC1 (configuration not stated),84.3% (inactive),–
O=C1c2cccc3cc([N+](=O)[O-])cc(c23)C(=O)N1CC1CCCO1 (configuration not stated),23.2% (inactive),–
C=CCOCCN(C)C1=NS(=O)(=O)c2cc([N+](=O)[O-])ccc21,-14.3% (inactive),–
CC(=O)C1=C(c2cccc([N+](=O)[O-])c2)N(C(C)=O)n2c(C)nnc2S1,-84.3% (inactive),–
CN(C)c1ccc(C=c2c3ccccc3n3c2c2c([n+]3C)CCCC2)cc1,-74.1% (inactive),–
Cc1cc(NC2=CC(=O)C(=O)c3ccccc32)no1,-9.16% (inactive),–
CC1(S(=O)(=O)O)CC(=O)c2ccccc2C1=O (configuration not stated),-12.1% (inactive),–
c1ccc(Nc2nc(-c3ccccn3)cs2)cc1,-0.973% (inactive),–
CN(C)S(=O)(=O)Oc1cccc(C(=O)Nc2ccc(Cl)cc2)c1,-19.4% (inactive),–
CC(=O)/C=C(\C)Nc1ccccc1O,-6.16% (inactive),–

Compound,growth rescue activity (at 19.5 µM (top of the series)),also measured
O=C(CC1CC2CCC1C2)Nc1nc(-c2ccccn2)cs1 (configuration not stated),-53.4% (inactive),–
CNc1ccc2oc(C[C@H]3O[C@@]4(CC[C@H]3C)O[C@H]([C@H](C)C(=O)c3ccc[nH]3)[C@H](C)C[C@H]4C)nc2c1C(=O)O,-78.1% (inactive),–
CCCn1c2ccccc2c2cc(C(=O)O)ccc21,–,growth rescue activity (at 6.8 µM (top of the series)): -29.3% (inactive)
COc1cnc(-c2ccccn2)nc1Sc1ccc(C)cc1,-65.7% (inactive),–
CCCCNc1c(-c2cccc(-c3ccc(OC)cc3)c2)nc2ccc(C)cn12,-90.6% (inactive),–
Cn1nc(C(F)(F)F)c(C#N)c1N1CCN(c2ccc(F)cc2)CC1,-49.6% (inactive),–
COc1nc(NC23CC4CC(CC(C4)C2)C3)nc(OC)n1,145% (inactive),–
COc1ccc(OCC(=O)NNC(=S)NC(=O)C2CCCCC2)cc1,-64.8% (inactive),–
Oc1ccc(N=Nc2ccc3c(c2)OCCO3)c2cccnc12,-42.4% (inactive),–
Cc1ccccc1CN(C)CCS(=O)(=O)c1cc(Cl)ccc1Cl,-67.7% (inactive),–
CC(Nc1cccc2ccccc12)C(=O)N/N=C/c1ccccn1 (configuration not stated),-11.5% (inactive),–
CC(C)CSc1n[nH]c(=S)s1,-51% (inactive),–
O=C(O)/C(=C\c1ccc(F)cc1)c1ccc(-c2ccccc2)cc1,-66.8% (inactive),–
CCO/C=C1/C(=O)N(Cc2ccccc2)C(=O)c2ccccc21,2.35% (inactive),–
CC1CC(=Cc2ccc([N+](=O)[O-])cc2)C(=O)O1 (configuration not stated),2.43% (inactive),–
Cc1nc2c(o1)C(=O)c1ccccc1C2=Nc1ccccc1,-29.5% (inactive),–
CC1(C)C(C=C(Cl)Cl)C1C(=O)N1CCN(c2ccccc2)CC1 (configuration not stated),6.49% (inactive),–
c1ccc(CSc2ccc(-c3ccccn3)nn2)nc1,-28% (inactive),–
O=S(=O)(O)c1cc(Cl)cc(N=Nc2ccc(O)cc2O)c1O,41.4% (inactive),–
Cc1nc2ccc(C(=O)NCc3ccc4c(c3)OCO4)cc2s1,-2.94% (inactive),–
CCn1c(-c2cc(-c3ccc(C)cc3)nc3ccccc23)n[nH]c1=S,-24.4% (inactive),–
Cc1c(C(=O)O)cccc1-c1ccc(/C=N/Nc2ccc(Br)cc2)o1,-92.6% (inactive),–
O=C1OCC(CO)(CO)N=C1NNc1ccc(Cl)c(Cl)c1,-52.3% (inactive),–

Compound,growth rescue activity (at 19.5 µM (top of the series)),also measured
CCCn1c(=O)c(C(=O)NCc2ccc(OC)c(OC)c2)c(O)c2ccccc21,-19.9% (inactive),–
S=C(NC1CCCC1)N1CCN(c2cccc(Cl)c2)CC1,13.6% (inactive),–
Cc1ccoc1C(=O)Nc1cccc(Oc2ccccc2)c1,-88.5% (inactive),–
COC(=O)c1cccc2c1-c1ccccc1/C2=N/O,30.5% (inactive),–
CSC1SCC2C(=O)N(C)C(C(C)C)C(=O)OCC(NC(=O)c3cnc4ccccc4n3)C(=O)NC(C)C(=O)N(C)C1C(=O)N(C)C(C(C)C)C(=O)OCC(NC(=O)c1cnc3ccccc3n1)C(=O)NC(C)C(=O)N2C (configuration not stated),8.43% (inactive),–
O=C(Nc1nnc(-c2ccccc2)o1)c1ccc(Cl)cc1,-46.1% (inactive),–
CC(=O)Oc1ccc(N2C(=O)C3C4C=CC(O4)C3C2=O)cc1 (configuration not stated),16.1% (inactive),–
CN1C(=S)SC(N(O)C(=O)Nc2cccc3ccccc23)C1(C)C (configuration not stated),0.395% (inactive),–
Cc1nc(SCc2ccc(OCCC(C)C)cc2)n[nH]1,-93.3% (inactive),–
O=C(c1ccc(-c2ccccc2)cc1)C1CCCN(C(=O)c2cncs2)C1 (configuration not stated),-59.8% (inactive),–
CCOC(=O)C1=NN(c2ccccc2)C(=O)/C1=C\c1ccc(N(C)C)cc1,-16.7% (inactive),–
CCOC(=O)c1ccc(N2C(=O)CC(N3CCC(O)(c4ccc(Cl)cc4)CC3)C2=O)cc1 (configuration not stated),-16.1% (inactive),–
O=c1c2ccccc2nc(-c2cccc(Cl)c2)n1O,-66% (inactive),–
O=[N+]([O-])c1ccc(Sc2cccc[n+]2[O-])c2nonc12,-4.98% (inactive),–
CSc1nc(-c2ccccc2F)c(C#N)c(=O)n1C,47.9% (inactive),–
O=C(OCC(=O)C12CC3CC(CC(C3)C1)C2)c1ccc(O)cc1,-10.8% (inactive),–
COc1cccc(NC(=O)CN(C)C(=O)c2cccnc2Nc2cccc(C(F)(F)F)c2)c1,-21.3% (inactive),–
Cn1c(CNc2ccccc2O)nc2ccccc21,-50% (inactive),–
CC(C)(C)C(O)C(Cc1ccccc1Cl)n1cncn1 (configuration not stated),-53.7% (inactive),–
O=c1c2ccccc2c(-c2ccc(O)cc2)nn1-c1cccc(C(F)(F)F)c1,-88.1% (inactive),–
O=Nc1c(O)c2ccccc2c2ccccc12,-91.5% (inactive),–
Oc1c(Cl)c(Cl)c(Cl)c(Cl)c1Cl,-82.9% (inactive),–
[O-][n+]1cccc2c(Br)cc(Br)c(O)c21,-82.7% (inactive),–
